Assay results: patent US6541483B2, “Acridone-derived compounds useful as antineoplastic and antiretroviral agents” (The United States of America as represented by the …, priority 1996, dated 2003)
Where two headings read alike, the source gives them in different places.

How the values were obtained:
CEM-SS cells [1] = assay: XTT assay toxicity in CEM-SS cells (IC50); assay type: cell-based; conditions: for IC50: Homo sapiens, CEM-SS cells
Text: (§1) Briefly, the infected cells in culture are killed by the virus, and the cytotoxicity is detected by the formation of color due to the […] of a formazan dye (XTT) by enzymes released by the dying cells (Weislow et al., J. Natl. Cancer Inst. 81:577-586, 1989). An effective antiviral drug is able to protect the infected cells from cytotoxicity by inhibiting some vital function of the virus. […] FIGS. 4 and 5 show the cytoprotective activity of WMC26 and WMC42. Since many drugs can also be toxic to cells in their own right, a parallel experiment is carried out wherein uninfected cells are treated with the drugs until a concentration is reached where the cells are killed by the action of the drug.
(§2) As a result of these preliminary data, additional experiments were carried out to establish the antiviral activity in other cell lines, using a variety of protocols. The preliminary experiments in lymphocytes were confirmed using infected macrophages. Much more extensive experiments were carried out in HIV-1-infected CEM SS leukemia cells. […] However, two derivatives were found which had low antileukemic activity while maintaining high antiviral activity. […] This gives a therapeutic index of more than 3 orders of magnitude. The corresponding therapeutic index for WMC50 is about 100-200, which is quite acceptable. Additional experiments were carried out on WMC-70. […] Further, WMC-70 appears to affect post-transcription events in the virus. […] While the inhibition of integration appears to be the principal mechanism by which this compound exerts its antiviral activity, there are perhaps other mechanisms which are also involved in the therapeutic action of this drug, and by extension, of other antiviral drugs of this class.
(§3) The antiviral properties of the WMC series of compounds were evaluated. First, all compounds were tested for their ability to inhibit HIV-1 replication in cell culture using the XTT cytoprotection assay. This assay measures the concentration-dependent capacity of compounds to protect CEM-SS cells from the cytopathic effects of HIV-1. […] Thus, temacrazine was the most efficacious compound in the XTT cytoprotection assay. This conclusion was also reached when the compounds were tested for anti-HIV-1 activity against HIV-1ADA in human monocyte/macrophage cultures (Table 1).

HIV-1 = assay: XTT cytoprotection assay in CEM-SS cells (antiviral EC50); assay type: cell-based
Text: as §1, §2, §3

CEM-SS cells [2] = assay: 3H precursor incorporation in CEM-SS cells; assay type: cell-based
HIV-1 mRNA = assay: RT-PCR of HIV-1 mRNA expression and splicing after TNFα induction; assay type: cell-based
Procedure: Similar results were seen when temacrazine and TNFα were added simultaneously.
As a control the house keeping gene porphobilinogen deaminase (Hydroxymethylbilane synthase, “PBGD”) was amplified to determine uniformity of loading.

HIV-1 in U1 cells = assay: TNF-α stimulated latently infected U1 cells, virus production; assay type: cell-based
Procedure: As a model of the late phase events during the HIV-1 replication cycle, U1 cells were used that are latently infected with two copies of HIV-1 proviral DNA. The high level expression of virus production in these U1 cells can be stimulated by certain factors, such as TNF-α. U1 cells were stimulated with TNF-α for 24 hours, after which were added various concentrations of temacrazine, and the cultures were allowed to incubate for 48 additional hours. At that time, the cells were evaluated for viability and for their content of viral protein synthesis and processing, while the cell-free supernatant was evaluated for viral p24 content and for the infectious titer of released virions.
After TNFα induction and temacrazine treatment, cultures were continued for 72 h after which virion-associated p24 and cell viability (XTT dye reduction) were measured.

HIV-1 in ACH-2 cells = assay: TNFα stimulated latently infected ACH-2 cells, virus production; assay type: cell-based; conditions: Human immunodeficiency virus 1, 72 h, read-out: EC50, inhibition of HIV-1 virus replication (virion-associated p24)
Procedure: In a similar study, cells were either treated for 24h with TNFα followed by the addition of temacrazine, or temacrazine and TNFα were added simultaneously, or temacrazine was added 24 h […] TNFα addition. After TNFα induction and temacrazine treatment, cultures were continued for 72 h after which virion-associated p24 and cell viability (XTT dye reduction) were measured.

[3] = molecular target: p7 nucleocapsid protein zinc fingers (Human immunodeficiency virus type 1 group M subtype B, UniProt P04591); assay: p7NC zinc finger fluorescence assays (TSQ, Trp37); assay type: biochemical, HIV-1
Text: Based on the findings thus far our efforts have focused on biological assays of the temacrazine congener.

HIV-1 specific mRNA = assay: Northern blotting of total HIV-1 mRNA in U-1 cells; assay type: cell-based; conditions: TNFα stimulated U-1 cells
Text: To assess the possibility that temacrazine was regulating HIV-1 mRNA expression, the expression of total HIV-1 mRNA by Northern blotting was examined (FIG. 16).

SMILES: O=c1c2ccccc2n2nnc3ccc(NCCCN4CCN(CCCNc5ccc6nnn7c8ccccc8c(=O)c5c67)CC4)c1c32 [temacrazine]
- concentration at which the drug kills 50% of the cells (CEM-SS cells [1]; CEM SS cells): greater than micromolar concentrations
- IC50 (CEM-SS cells [1]; Table 1, read-out: XTT Assay IC50): 2770 nM
- IC50 (CEM-SS cells [1]; read-out: IC50 toxicity value, XTT assay): 2770 nM
- therapeutic index (HIV-1; CEM SS cells): more than 3 orders of magnitude
- cytoprotective activity (HIV-1; HIV-1-infected CEM SS leukemia cells): cytoprotective at very low concentrations
- EC50 (HIV-1; Human immunodeficiency virus 1, CEM-SS, read-out: EC50 (inhibits the cytotoxic effect of the virus to 50%)): < 1 nM
- EC50 (HIV-1; Human immunodeficiency virus 1, CEM-SS, read-out: XTT Assay EC50): 1.1 nM
- EC50 (HIV-1; Human immunodeficiency virus 1, CEM-SS cells, read-out: EC50 antiviral value, XTT cytoprotection assay): 1.1 nM
- incorporation of 3H Leucine (protein metabolism) (CEM-SS cells [2]): no effect
- incorporation of 3H Thymidine (DNA replication) (CEM-SS cells [2]): no effect
- incorporation of 3H Uridine (RNA production) (CEM-SS cells [2]; CEM-SS cells): no effect
- PBGD (house keeping gene) expression (HIV-1 mRNA): did not decrease
- expression of unspliced or singly spliced mRNA (HIV-1 mRNA; 500 and 50 nM, prior to or 24 h after TNFα induction): completely inhibited
- expression of HIV-1 multispliced transcripts (HIV-1 mRNA; RT-PCR, rev independent mRNAs): did not alter
- production of infectious virus following stimulation with TNFα (HIV-1 in U1 cells; 30 min. pulse of cultures): presented subsequent production of infectious virus
- EC50 (HIV-1 in U1 cells; Human immunodeficiency virus 1, U1 cells, 72 h, read-out: EC50, inhibition of HIV-1 virus replication (virion-associated p24)): 10 to 100 nM
- infectivity of released viral particles (IU/ml) (HIV-1 in U1 cells; TNF-α 24 h, then drug 48 h): non-infectious
- concentration at which virus production (p24) was inhibited (HIV-1 in U1 cells; TNF-α 24 h, then drug 48 h, cell-free supernatant): below 4 nM
- processing of Gag precursor polyprotein (Pr55gag) to p24 and p7NC (HIV-1 in U1 cells; cells with integrated virus (U1), Western blotting, listed as WMC-70): no p24 can be detected
- EC50 (HIV-1 in ACH-2 cells): 10 to 100 nM
- damage of the gag protein zinc finger [3]: did not damage
- HIV-1 specific mRNA production (HIV-1 specific mRNA; 1 nM): decrease in single spliced and unspliced mRNA with no apparent decrease in the multi-spliced mRNA
- HIV-1 specific mRNA production (HIV-1 specific mRNA; 10 and 100 nM): suppressed mRNA production globally
